Source: ChEMBL document CHEMBL1201862, “PubChem BioAssay data set” (2004)
Calls of active or inactive are those of the source.

Experiments:
[1] = A Cell-Based Confirmatory Screen for Compounds that Inhibit VEEV, TC-83 (5).; format: functional
[2] = inhibitors of non-replicating M. tuberculosis, dose response, luciferase, dry powder (AID 651620); format: functional; settings: Mycobacterium tuberculosis
[3] = growth inhibition of replicating M. tuberculosis, dose response, counter-screen, dry powder, IC90 (AID 651617); format: functional; settings: Mycobacterium tuberculosis
[4] = inhibitors of non-replicating M. tuberculosis, dose response, luciferase, dry powder (AID 651619); format: functional; settings: Mycobacterium tuberculosis
[5] = biological target: RNA-editing ligase 1, mitochondrial (Trypanosoma brucei brucei, UniProt P86926); assay: inhibition of trypanosome RNA editing ligase – biochemical, fluorescence, Trypanosoma brucei, dose response (AID 1117295); format: functional
RNA-editing ligase 1, mitochondrial, sequence (P86926 whole entry): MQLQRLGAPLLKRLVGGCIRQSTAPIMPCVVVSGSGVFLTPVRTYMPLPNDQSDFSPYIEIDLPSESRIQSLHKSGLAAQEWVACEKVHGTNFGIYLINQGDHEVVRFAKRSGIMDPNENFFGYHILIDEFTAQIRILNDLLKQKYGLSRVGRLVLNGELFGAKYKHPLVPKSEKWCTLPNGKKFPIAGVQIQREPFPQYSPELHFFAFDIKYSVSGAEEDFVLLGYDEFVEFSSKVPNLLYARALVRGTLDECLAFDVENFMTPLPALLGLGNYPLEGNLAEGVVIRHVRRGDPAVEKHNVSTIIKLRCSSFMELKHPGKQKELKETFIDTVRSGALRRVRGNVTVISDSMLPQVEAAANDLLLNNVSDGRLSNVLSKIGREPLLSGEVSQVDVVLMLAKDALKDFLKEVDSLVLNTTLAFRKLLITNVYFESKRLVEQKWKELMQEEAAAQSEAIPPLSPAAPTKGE

[6] = biological target: NAD-dependent protein deacylase sirtuin-5, mitochondrial (Homo sapiens, UniProt Q9NXA8); assay: blockers of sirtuin-5 peptide desuccinylation – biochemical, fluorescence imaging, cherry-pick, set 6, dose response (AID 720597)
NAD-dependent protein deacylase sirtuin-5, mitochondrial, sequence (Q9NXA8 whole entry): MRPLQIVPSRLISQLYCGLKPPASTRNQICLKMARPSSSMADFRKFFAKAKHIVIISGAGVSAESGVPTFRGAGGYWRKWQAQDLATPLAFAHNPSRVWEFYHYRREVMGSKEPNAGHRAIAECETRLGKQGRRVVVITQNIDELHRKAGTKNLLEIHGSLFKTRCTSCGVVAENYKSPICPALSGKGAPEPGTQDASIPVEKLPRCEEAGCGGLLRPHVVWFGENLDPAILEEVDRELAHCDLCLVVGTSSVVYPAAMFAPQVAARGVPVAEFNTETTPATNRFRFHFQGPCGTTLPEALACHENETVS

[7] = viability loss in HepG2 liver cells – cell-based, ATP luminescence, cherry-pick, set 6, cytotoxicity control, dose response (AID 1053125); format: functional
[8] = biological target: ATP-dependent translocase ABCB1 (Homo sapiens, UniProt P08183); assay: inhibition of P-gp mediated JC-1 efflux – Jurkat-DNR cells, flow cytometry, dose response (AID 1689); format: functional
ATP-dependent translocase ABCB1, sequence (P08183 whole entry): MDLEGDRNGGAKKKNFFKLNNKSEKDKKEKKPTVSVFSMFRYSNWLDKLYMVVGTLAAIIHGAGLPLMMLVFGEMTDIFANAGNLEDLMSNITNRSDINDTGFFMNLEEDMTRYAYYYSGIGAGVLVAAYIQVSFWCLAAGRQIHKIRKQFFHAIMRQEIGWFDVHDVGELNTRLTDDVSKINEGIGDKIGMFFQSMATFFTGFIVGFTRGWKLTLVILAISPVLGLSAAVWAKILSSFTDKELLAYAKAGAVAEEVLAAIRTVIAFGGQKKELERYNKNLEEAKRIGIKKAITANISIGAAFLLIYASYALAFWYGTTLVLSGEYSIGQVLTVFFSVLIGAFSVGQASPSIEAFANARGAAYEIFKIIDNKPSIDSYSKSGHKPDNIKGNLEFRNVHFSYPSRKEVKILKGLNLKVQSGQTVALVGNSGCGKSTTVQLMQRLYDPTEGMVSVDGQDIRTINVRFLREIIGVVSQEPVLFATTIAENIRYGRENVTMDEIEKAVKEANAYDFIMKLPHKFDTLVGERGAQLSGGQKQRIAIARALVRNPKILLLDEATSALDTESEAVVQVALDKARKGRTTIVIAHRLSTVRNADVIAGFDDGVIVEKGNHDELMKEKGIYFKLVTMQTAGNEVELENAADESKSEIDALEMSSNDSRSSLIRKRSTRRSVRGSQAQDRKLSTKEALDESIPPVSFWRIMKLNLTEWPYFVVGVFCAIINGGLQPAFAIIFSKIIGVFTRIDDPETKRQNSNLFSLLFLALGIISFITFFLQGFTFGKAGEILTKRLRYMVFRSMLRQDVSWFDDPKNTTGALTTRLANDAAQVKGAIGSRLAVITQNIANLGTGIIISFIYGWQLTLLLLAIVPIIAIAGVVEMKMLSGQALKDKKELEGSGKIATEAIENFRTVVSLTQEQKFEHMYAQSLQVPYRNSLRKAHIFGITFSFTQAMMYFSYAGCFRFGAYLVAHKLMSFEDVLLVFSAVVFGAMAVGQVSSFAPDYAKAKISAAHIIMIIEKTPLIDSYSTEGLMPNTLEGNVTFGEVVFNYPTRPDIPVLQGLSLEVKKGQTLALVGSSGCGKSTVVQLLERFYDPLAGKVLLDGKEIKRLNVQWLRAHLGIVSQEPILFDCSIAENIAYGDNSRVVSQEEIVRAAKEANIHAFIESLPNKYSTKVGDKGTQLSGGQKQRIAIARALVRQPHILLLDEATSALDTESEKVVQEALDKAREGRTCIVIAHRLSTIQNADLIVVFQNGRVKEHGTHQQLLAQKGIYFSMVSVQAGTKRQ

[9] = cells; settings: HEK293
[10] = cells
[11] = biological target: Broad substrate specificity ATP-binding cassette transporter ABCG2 (Homo sapiens, UniProt Q9UNQ0); assay: blockers of JC-1 export by ABCG2 – Ig-MXP3 cells, flow cytometry, dose response (AID 1690); format: functional
Broad substrate specificity ATP-binding cassette transporter ABCG2, sequence (Q9UNQ0 whole entry): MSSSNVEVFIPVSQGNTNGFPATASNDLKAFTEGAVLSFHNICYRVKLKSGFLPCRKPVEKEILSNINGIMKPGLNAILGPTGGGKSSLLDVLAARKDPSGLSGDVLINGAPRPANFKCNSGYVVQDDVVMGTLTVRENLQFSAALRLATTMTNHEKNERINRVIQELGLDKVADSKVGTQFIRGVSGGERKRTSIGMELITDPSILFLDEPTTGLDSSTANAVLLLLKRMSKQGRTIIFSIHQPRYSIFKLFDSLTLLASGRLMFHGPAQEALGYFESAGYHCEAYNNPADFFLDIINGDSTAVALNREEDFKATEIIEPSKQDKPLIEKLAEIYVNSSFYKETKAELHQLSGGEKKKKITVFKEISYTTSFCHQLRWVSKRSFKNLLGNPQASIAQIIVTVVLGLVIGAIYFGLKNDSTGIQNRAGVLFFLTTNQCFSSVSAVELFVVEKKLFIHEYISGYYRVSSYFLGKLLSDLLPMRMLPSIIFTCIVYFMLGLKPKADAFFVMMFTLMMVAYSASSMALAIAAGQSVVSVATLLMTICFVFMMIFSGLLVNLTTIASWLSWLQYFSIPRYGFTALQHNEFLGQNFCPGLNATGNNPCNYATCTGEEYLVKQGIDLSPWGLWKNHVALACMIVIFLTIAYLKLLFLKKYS

[12] = Trypanosoma cruzi growth suppression in host cells – NIH3T3 host cells, beta-gal luminescence, confirmation (AID 2044); format: functional, cell-based;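 also: intracellular parasites grown in NIH/3T3 mouse fibroblasts as host cells; luminescent beta-galactosidase reporter signal from transgenic T. cruzi replicating inside host cells; inhibitors lower the luminescence signal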
[13] = biological target: T1, Calpain-2 catalytic subunit (Sus scrofa, UniProt P43367); assay: m-calpain protease blockers, concentration series – biochemical, fluorogenic peptide substrate, dose response (AID 1420); format: functional
T1 sequence (P43367 whole entry): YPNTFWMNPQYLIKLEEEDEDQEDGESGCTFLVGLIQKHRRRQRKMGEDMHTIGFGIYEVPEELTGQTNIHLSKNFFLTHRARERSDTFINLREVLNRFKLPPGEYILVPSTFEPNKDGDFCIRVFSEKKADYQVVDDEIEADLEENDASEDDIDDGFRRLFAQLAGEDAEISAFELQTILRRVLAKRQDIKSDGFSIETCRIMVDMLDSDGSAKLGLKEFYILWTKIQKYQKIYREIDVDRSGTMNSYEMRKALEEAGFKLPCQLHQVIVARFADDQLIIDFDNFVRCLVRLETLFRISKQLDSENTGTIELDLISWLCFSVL

[14] = NIH3T3 cell viability loss – ATP luminescence, mouse fibroblasts, counter-screen, dose response (AID 2010); format: functional, cell-based;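 also: cells exposed to compound for about 90 hours before reading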
[15] = biological target: T2, Fibrinogen beta chain (Homo sapiens, UniProt P02675); assay: Fluorescence polarization-based biochemical high throughput dose response assay to identify inhibitors that disrupt the binding of a cyclic peptide (Tn7) to the fibrin proteolytic product D-Dimer and fragment E complex [DD(E )].
T2 sequence (P02675 whole entry, the tested form may be a part): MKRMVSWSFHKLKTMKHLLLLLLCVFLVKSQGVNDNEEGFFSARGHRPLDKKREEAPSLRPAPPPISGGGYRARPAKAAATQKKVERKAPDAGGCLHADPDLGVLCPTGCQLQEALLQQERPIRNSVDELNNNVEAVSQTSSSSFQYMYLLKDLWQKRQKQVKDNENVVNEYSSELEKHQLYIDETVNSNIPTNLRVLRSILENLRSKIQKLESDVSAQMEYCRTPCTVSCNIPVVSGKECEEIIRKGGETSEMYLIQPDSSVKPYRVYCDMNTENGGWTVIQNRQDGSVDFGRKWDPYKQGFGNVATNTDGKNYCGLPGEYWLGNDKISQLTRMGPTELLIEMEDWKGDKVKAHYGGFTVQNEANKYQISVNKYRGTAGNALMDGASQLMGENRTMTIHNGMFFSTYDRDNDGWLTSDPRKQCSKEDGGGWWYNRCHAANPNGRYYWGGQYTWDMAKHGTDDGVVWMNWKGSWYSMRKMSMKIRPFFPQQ

[16] = biological target: T2, Fibrinogen beta chain; assay: Fluorescence polarization-based biochemical high throughput dose response assay to identify inhibitors that disrupt the binding of a cyclic peptide (Tn6) to the fibrin proteolytic product D-Dimer and fragment E complex [DD(E )].
[17] = biological target: Genome polyprotein (Hepatitis C virus, UniProt Q2Q167); assay: disruption of hepatitis C core self-association – biochemical, TR-FRET, dose response (AID 2159); design: species or system Hepacivirus hominis;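 also: blocks dimerization of HCV core protein measured by TR-FRET between tagged core106 pairs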
Genome polyprotein, sequence (Q2Q167 whole entry): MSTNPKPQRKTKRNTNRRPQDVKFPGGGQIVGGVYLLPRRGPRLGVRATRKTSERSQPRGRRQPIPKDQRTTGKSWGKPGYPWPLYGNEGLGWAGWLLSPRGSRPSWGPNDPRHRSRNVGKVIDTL

[18] = African trypanosome bloodstream form growth inhibition – STIB900 strain, plate reader, cherry pick, dose response (AID 651893); format: functional, cell-based, Trypanosoma brucei rhodesiense; settings: Trypanosoma brucei
[19] = L6 myocyte viability loss – cell-based, plate reader, cherry-pick, cytotoxicity control, dose response (AID 651896); format: functional
[20] = anti-trypanosomal activity in BESM host cells – imaging, CA-I/72 strain, bovine embryo skeletal muscle, dry powder, dose response (AID 651885); format: functional, cell-based
[21] = antileishmanial activity on axenic amastigotes – plate reader, cherry pick, dose response (AID 651891); format: functional, cell-based; settings: Leishmania donovani
[22] = Inhibition of T. cruzi Tulahuen strain amastigotes in L-6 muscle cells Measured in Cell-Based and Microorganism Combination System Using Plate Reader - 2138-03_Inhibitor_Dose_CherryPick_Activity.; format: functional; settings: Rattus norvegicus, L6
[23] = T. cruzi growth inhibition in host cells, dose response, cell-based, plate reader, dry powder, set 2 (AID 652275); format: functional
[24] = Inhibition of Plasmodium falciparum NF54 Measured in Cell-Based System Using Plate Reader - 2138-11_Inhibitor_Dose_CherryPick_Activity.; format: functional
[25] = intracellular Trypanosoma cruzi inhibitors in host cells – cell-based, plate reader, cherry-pick samples, set 3, dose response (AID 651818); format: functional;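 also: compounds incubated with infected cells for about four days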
[26] = Trypanosoma cruzi replication inhibitors in host cells – cell-based, plate reader, dry powder samples, dose response (AID 651845); format: functional
[27] = mouse fibroblast viability loss – cell-based, cherry-pick samples, set 2, cytotoxicity control for T. cruzi growth inhibitor project, dose response (AID 651817); format: functional; settings: NIH3T3
[28] = microbe, parasite or virus in culture; format: functional; settings: Mycobacterium tuberculosis
[29] = M. tuberculosis growth inhibition, HTS (AID 449762); format: functional

For `CCN1CCN(Cc2nc3ccc(I)cc3c(=O)n2-c2ccccc2)CC1`, the IC50 [1] was 17.1 µM (active).

In the case of `Cc1ccc(-c2nnc(SCc3ccccn3)o2)cc1`, the IC90 [2] is reported as 4 µM (active), the IC90 [3] is reported as 62 µM (active) and the IC90 [4] is reported as 4 µM (active).

With `COC(=O)C1=C(C)N(Cc2ccccc2C(F)(F)F)C(NCc2ccc(OC)cc2)=NC1c1ccc(Cl)cc1` (centres undefined) the IC50 [5] was > 96.6 µM (inactive).

In the case of `COc1ccc(S(=O)(=O)Nc2ccc3c(c2)C(=O)N([C@@H](C)CO)C[C@@H](C)[C@H](CN(C)S(=O)(=O)c2ccccc2)OCCCC[C@H](C)O3)cc1`, the AC50 [6] is reported as > 30 µM (inactive).

With `CCOC(=O)c1c(NC(=O)CSc2ncccn2)sc2c1CCN(Cc1ccccc1)C2` the AC50 [7] was > 52 µM (inactive), the EC50 [8] was 9.93 µM (active) and the AC50 [9] was > 52 µM (inactive). The AC50 [10] was > 70 µM (inactive), the EC50 [11] was 1.88 µM (active) and the EC50 [12] was 3.07 µM (active). For the same compound, the IC50 [13] was 5.71 µM (not active) and the EC50 [14] was > 60 µM (not active).

In the case of `CCOC(=O)C1=Nc2cccc3c(O)ccc1c23`, the IC50 [15] is reported as > 9.25 µM (active) and the IC50 [16] is reported as 22.3 µM (inactive).

For `CC1(C)Cc2c(C#N)c(N3CCN(C(=O)c4ccco4)CC3)nc(-c3ccco3)c2CS1`, the IC50 [17] was > 49.8 µM (not active).

In the case of `C[C@@H]1CN([C@H](C)CO)C(=O)c2cccc(NC(=O)c3ccncc3)c2O[C@H]1CN(C)Cc1ccc2c(c1)OCO2`, the IC50 [18] is reported as 6.86 µM (inactive), the IC50 [19] is reported as > 100 µM (inactive) and the IC50 [20] is reported as 0.049 µM (active). The IC50 [21] was > 100 µM (inactive), the IC50 [22] was 5.79 µM (inactive) and the AC50 [23] was 0.0187 µM (active). For the same compound, the IC50 [24] was 5.79 µM (inactive), the AC50 [25] was 0.08 µM (active) and the AC50 [26] was 0.311 µM (active). For the same compound, the AC50 [27] was 39 µM (inactive).

For `COc1cc2c(-c3ccc4[nH]ccc4c3)c(-c3ccc(C#N)cc3)oc(=O)c2cc1OC`, the CC50 [28] was > 40 µM (active) and the IC50 [29] was > 100 µM (active).
